Results on five compounds are retold here after US11331299B2, “Medicinal use of serrulatane diterpenes” (The University of Sydney, priority 2016, dated 2022).

One series concerns the target T1, BRD2(2) (h) bromodomain (Homo sapiens, UniProt P25440).
T1 construct: Bromodomain
The series can be described thus: Epigenetic binding assay, Bromodomain. The conditions noted are these: read-out: % Inhibition of Control Specific Binding.

In a further series the target is HDAC3 (h) (Homo sapiens, UniProt O15379). Kind of series: Epigenetic enzyme assay, Histone deacetylase (HDACs). Type of series: biochemical. The conditions noted are these: read-out: % Inhibition of Control Values.
Sequence of HDAC3 (h) (O15379 whole entry): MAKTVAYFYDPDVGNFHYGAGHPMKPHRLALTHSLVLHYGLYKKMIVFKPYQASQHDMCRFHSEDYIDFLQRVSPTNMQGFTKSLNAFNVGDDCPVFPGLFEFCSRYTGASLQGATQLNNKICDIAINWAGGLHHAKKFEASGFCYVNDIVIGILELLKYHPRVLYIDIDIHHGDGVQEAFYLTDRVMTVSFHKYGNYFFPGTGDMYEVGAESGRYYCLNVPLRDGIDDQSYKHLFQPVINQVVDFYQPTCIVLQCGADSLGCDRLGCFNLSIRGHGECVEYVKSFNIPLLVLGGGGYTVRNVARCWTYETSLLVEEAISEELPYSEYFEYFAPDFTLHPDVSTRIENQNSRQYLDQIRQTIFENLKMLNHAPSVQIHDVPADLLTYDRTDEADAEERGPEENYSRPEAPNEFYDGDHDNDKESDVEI
Sequence of HDAC3 (h) (Q9Y618 395-489 partner limits assumed): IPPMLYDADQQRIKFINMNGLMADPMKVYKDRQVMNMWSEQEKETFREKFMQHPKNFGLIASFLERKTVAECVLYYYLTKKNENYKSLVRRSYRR
For the next series, the target named is T2, BRPF1-1 (h) bromodomain (Homo sapiens, UniProt P55201).
T2 construct: Bromodomain
T2 sequence (P55201 628-732 limits assumed): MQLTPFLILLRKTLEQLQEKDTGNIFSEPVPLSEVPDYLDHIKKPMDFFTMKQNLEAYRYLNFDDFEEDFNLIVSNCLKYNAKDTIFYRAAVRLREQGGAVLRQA
Kind of series: Epigenetic binding assay, Bromodomain. The conditions noted are these: 10 μM; read-out: % Inhibition of Control Specific Binding.

The next series has as its target T3, HMG-CoA Reductase (Homo sapiens, UniProt P04035).
T3 construct: host or cells: E. coli
T3 sequence (P04035 426-888 limits assumed): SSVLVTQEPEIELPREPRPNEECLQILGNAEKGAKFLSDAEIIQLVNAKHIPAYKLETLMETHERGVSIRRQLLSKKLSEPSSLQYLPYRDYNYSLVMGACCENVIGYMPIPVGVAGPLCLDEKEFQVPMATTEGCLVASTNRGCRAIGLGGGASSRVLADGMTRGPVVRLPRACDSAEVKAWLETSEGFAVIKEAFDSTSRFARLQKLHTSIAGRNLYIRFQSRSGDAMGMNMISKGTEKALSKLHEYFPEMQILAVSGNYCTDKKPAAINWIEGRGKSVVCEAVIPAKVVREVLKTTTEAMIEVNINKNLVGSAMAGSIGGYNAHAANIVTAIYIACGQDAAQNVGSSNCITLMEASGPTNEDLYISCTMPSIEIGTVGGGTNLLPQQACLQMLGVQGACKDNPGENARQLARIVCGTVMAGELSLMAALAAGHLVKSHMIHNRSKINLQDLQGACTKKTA
The series can be described thus: HMG-CoA Reductase. The conditions noted are these: assay year 2015, read-out: % Control Response. Type of series: biochemical. The method, then:
(§1) The in vitro pharmacological studies were conducted by Eurofins PanLab (Taiwan) using the parameters shown in Table 13 with respect to appropriate literature references.

A further series addresses SUV39H2 (h) (Homo sapiens, UniProt Q9H5I1). The series can be described thus: Epigenetic enzyme assay, Methyltransferases (MTs). Type of series: biochemical. The conditions noted are these: for inhibition at 10 µM: read-out: % Inhibition of Control Values.
Another series concerns the target T4, HAT1(h) (Homo sapiens, UniProt O14929).
T4 sequence (O14929 1-419): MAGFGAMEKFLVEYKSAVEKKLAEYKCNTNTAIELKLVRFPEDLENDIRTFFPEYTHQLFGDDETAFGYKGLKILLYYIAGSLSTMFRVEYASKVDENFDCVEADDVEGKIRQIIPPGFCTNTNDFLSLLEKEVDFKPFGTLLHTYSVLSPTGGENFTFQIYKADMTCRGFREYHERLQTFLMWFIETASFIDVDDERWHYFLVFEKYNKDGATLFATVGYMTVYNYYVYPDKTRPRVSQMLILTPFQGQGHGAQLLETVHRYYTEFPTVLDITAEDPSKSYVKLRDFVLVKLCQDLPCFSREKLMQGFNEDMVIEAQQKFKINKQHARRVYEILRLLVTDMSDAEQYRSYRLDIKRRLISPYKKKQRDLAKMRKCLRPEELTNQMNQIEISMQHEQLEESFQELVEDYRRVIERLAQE
Kind of series: Epigenetic enzyme assay, Histone acetyltransferases (HATs). Type of series: biochemical. The conditions noted are these: read-out: % Inhibition of Control Values.

In another series the target is T5, Histamine H1 (Homo sapiens, UniProt P35367).
T5 construct: expressed in transfected cells; host or cells: Chem-1 cells
T5 sequence (P35367 whole entry): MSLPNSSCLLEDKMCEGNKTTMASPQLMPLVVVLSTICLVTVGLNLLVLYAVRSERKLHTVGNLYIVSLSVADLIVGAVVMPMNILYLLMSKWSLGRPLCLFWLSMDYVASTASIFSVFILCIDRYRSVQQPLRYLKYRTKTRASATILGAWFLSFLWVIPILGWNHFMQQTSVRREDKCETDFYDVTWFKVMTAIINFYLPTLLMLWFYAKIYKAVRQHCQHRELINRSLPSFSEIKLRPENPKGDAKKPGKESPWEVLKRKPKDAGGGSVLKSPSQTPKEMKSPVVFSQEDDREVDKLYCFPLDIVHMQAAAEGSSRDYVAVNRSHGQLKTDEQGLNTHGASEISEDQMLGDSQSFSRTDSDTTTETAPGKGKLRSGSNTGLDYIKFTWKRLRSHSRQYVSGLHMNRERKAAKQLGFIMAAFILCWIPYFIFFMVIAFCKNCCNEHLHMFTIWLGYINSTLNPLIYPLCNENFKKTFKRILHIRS
Kind of series: Histamine H1 radio ligand binding. The method, then:
as §1

A further series deals with CYP2D6 (Homo sapiens, UniProt P10635). Kind of series: in vitro. The conditions noted are these: human liver microsomes, probe dextromethorphan. A general note: Microsomes from liver hold many membrane-bound enzymes, among them those of drug oxidation.
Sequence of CYP2D6 (P10635 whole entry): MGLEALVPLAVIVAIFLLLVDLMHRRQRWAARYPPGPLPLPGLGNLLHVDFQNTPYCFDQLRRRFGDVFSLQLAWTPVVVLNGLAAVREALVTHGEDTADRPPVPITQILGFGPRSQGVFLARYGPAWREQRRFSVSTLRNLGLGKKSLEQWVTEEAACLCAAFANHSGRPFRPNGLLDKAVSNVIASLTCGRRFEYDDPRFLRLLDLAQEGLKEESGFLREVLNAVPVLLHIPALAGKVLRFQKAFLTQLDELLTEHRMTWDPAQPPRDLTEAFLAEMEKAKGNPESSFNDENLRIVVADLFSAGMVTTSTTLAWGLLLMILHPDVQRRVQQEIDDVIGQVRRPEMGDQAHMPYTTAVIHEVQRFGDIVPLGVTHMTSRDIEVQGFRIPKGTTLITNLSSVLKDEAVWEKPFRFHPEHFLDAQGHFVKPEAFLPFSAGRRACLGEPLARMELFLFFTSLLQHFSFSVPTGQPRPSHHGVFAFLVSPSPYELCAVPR
The next series concerns the target T6, Histamine H3 (Homo sapiens, UniProt Q9Y5N1).
T6 construct: expressed in transfected cells; host or cells: Chem-1 cells
The series can be described thus: Histamine H3 radio ligand binding. The method, then: as §1

The target in another series is T7, UHRF1 (108-286) (h) (Homo sapiens, UniProt Q96T88).
T7 construct: Eurofins CEREP (France), contract laboratory
T7 sequence (Q96T88 108-286): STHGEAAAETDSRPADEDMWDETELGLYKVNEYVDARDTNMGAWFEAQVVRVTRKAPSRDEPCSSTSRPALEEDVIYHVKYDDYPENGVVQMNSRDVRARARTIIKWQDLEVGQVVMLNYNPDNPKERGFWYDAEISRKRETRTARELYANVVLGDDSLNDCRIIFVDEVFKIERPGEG
The series can be described thus: Epigenetic binding assay, PHD domain. The conditions noted are these: for inhibition at 10 µM: read-out: % Inhibition of Control Specific Binding.

The next series has as its target T8, BAZ2A (h) bromodomain (Homo sapiens, UniProt Q9UIF9).
T8 construct: Bromodomain
T8 sequence (Q9UIF9 1793-1897 limits assumed): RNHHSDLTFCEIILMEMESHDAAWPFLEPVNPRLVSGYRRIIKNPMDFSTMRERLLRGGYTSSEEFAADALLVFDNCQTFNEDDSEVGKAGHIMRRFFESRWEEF
Kind of series: Epigenetic binding assay, Bromodomain. The conditions noted are these: read-out: % Inhibition of Control Specific Binding.

For the next series, the target named is T9, Deacetylase, Histone 2 (Homo sapiens, UniProt Q92769).
T9 construct: host or cells: Insect Sf9 cells
T9 sequence (Q92769 whole entry): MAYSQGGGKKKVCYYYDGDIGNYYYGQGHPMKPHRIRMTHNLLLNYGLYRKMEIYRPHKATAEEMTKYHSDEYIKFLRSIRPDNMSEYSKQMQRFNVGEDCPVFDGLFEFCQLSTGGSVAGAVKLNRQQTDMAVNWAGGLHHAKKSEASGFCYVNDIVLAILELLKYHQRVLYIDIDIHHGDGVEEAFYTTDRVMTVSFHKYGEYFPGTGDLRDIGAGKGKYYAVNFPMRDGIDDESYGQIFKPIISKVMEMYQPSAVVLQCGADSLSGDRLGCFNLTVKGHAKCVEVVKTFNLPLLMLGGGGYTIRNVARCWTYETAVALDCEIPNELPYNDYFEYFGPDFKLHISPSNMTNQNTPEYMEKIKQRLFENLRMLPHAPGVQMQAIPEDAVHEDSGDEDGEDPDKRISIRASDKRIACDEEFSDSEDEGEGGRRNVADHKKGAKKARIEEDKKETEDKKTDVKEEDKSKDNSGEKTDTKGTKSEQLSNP
The series can be described thus: Deacetylase, Histone 2 (PanLab). Type of series: biochemical. The method, then: as §1

The target of another series is DNMT3b (Homo sapiens, UniProt Q9UBC3). Kind of series: Epigenetic enzyme assay, DNA methyltransferases (DNMTs). Type of series: biochemical. The conditions noted are these: for inhibition at 10 µM: read-out: % Inhibition of Control Values.
In series [1] the target is MSK2(h) (substrate histone H3 full length) (Homo sapiens, UniProt O75676). The series can be described thus: Epigenetic enzyme assay, Kinases. Type of series: biochemical. The conditions noted are these: read-out: % Inhibition of Control Values.
Sequence of MSK2(h) (substrate histone H3 full length) (O75676 whole entry): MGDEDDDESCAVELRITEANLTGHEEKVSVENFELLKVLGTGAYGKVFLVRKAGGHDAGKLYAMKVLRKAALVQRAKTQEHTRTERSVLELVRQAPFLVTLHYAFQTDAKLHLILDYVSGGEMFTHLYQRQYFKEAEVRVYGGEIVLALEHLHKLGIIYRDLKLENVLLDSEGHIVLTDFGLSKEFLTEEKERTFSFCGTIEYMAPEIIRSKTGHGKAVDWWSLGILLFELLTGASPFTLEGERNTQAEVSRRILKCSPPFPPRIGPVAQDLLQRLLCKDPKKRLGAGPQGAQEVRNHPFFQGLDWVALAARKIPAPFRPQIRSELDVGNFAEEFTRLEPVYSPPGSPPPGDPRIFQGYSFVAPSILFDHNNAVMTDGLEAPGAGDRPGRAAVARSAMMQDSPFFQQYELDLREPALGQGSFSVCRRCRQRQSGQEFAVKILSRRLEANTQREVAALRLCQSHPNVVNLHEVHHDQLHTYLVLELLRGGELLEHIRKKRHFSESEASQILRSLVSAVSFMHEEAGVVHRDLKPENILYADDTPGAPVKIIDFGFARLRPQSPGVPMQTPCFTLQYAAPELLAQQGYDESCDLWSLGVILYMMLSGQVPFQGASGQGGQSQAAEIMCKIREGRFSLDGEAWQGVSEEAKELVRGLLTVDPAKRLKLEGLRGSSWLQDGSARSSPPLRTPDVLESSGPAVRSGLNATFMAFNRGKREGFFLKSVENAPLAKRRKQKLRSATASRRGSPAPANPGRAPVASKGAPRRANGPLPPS
In another series the test system is H3K27 me2-1. Kind of series: Cell-based detection methyl modifications. The conditions noted are these: read-out: % Inhibition of Control Values.
The mark [2] stands for this setting: assay year 2014, read-out: % Control Response.
Where [3] appears, read: assay year 2015, read-out: % Control Response.

SMILES strings stand for the structures. Read-outs that look alike come from different tables or passages of the source.

Sequence of SUV39H2 (h) (Q9H5I1 whole entry): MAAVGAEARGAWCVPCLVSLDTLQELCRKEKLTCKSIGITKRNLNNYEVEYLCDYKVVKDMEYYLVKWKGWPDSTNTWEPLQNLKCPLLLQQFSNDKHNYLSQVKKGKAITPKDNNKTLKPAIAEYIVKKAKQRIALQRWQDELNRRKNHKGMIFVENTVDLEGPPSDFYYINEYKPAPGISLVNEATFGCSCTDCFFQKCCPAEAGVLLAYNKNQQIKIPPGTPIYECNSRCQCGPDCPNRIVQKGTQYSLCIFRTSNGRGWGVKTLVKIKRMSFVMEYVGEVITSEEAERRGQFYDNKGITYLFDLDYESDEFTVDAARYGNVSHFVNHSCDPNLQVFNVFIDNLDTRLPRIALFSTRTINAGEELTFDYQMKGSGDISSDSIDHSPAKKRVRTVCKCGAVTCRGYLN
T6 sequence (Q9Y5N1 whole entry): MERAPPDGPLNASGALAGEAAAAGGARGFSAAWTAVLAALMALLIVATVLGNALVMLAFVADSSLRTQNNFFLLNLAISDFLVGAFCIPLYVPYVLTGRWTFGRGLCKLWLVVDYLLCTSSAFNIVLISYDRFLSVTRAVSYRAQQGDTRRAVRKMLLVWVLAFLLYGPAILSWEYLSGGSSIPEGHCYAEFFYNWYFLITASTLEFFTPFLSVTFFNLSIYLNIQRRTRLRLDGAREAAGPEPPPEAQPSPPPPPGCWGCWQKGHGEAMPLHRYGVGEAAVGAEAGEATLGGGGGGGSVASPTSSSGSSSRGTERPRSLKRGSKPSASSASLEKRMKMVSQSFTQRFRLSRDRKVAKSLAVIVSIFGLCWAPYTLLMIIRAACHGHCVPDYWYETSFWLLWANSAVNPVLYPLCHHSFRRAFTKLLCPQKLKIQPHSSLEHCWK
T1 sequence (P25440 344-453 limits assumed): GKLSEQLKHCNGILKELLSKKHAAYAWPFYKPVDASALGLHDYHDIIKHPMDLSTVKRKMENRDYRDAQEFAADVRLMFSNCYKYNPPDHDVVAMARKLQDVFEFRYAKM

In the case of `CC(C)=CCC[C@H](CO)[C@@H]1CC[C@@H](C)c2c1cc(C)c(O)c2O` [Compound 1, 7,8,18-trihydroxyserrulat-14-ene], the inhibition – broadly, the relative decrease from the control value, in per cent – at 10 µM was 58% at BRD2(2) (h) bromodomain; 1% on HDAC3 (h); -25% at BRPF1-1 (h) bromodomain; -8% on SUV39H2 (h); -3% at HAT1(h); 45% against CYP2D6. The inhibition at 10 µM was 73% on UHRF1 (108-286) (h) (10 μM); 56% on BAZ2A (h) bromodomain; -3% at DNMT3b; 9% in [1]; -2% in the series on H3K27 me2-1. The remaining activity at 10 µM at HMG-CoA Reductase is 29%; on Histamine H1 (setting [2]), 85%; on Histamine H1 (setting [3]) it was 97%; at Histamine H3 (setting [2]) it was -10%; on Histamine H3 (setting [3]) it was 12%; on Deacetylase, Histone 2 (setting [2]), 56%. In addition, the remaining activity at 10 µM at Deacetylase, Histone 2 (setting [3]) turned out to be 34%. For the same compound, the inhibition at 1 µM against CYP2D6 was in the range of 12 to 21%. The “% Inhibition of Control Specific Binding” value at UHRF1 (108-286) (h) (10 μM) is recorded as “good inhibitory activity”. Moreover, the “inhibition of binding, 1st” value was 81.5 on UHRF1 (108-286) (h) (3.0E−05M); −1.8 on UHRF1 (108-286) (h) (3.0E−06M); −12.1 at UHRF1 (108-286) (h) (3.0E−07M); −13.3 on UHRF1 (108-286) (h) (3.0E−08M); −11.9 at UHRF1 (108-286) (h) (3.0E−09M). Moreover, the “inhibition of binding, 2nd” value at UHRF1 (108-286) (h) (3.0E−05M) was 83.3; on UHRF1 (108-286) (h) (3.0E−06M), −0.1; on UHRF1 (108-286) (h) (3.0E−07M), −13.2; on UHRF1 (108-286) (h) (3.0E−08M) it was −12.6; at UHRF1 (108-286) (h) (3.0E−09M), −13.1. In addition, the “inhibition of binding, Mean” value on UHRF1 (108-286) (h) (3.0E−05M) was 82.4; at UHRF1 (108-286) (h) (3.0E−06M), −0.9; at UHRF1 (108-286) (h) (3.0E−07M), −12.7; on UHRF1 (108-286) (h) (3.0E−08M), −12.9; at UHRF1 (108-286) (h) (3.0E−09M) it was −12.5. Further, at UHRF1 (108-286) (h) (Table 9, inhibition/concentration-response curve), the IC50 (in general, the concentration at which inhibition is half-maximal) was 11 µM.
On to `CC(C)=CCC[C@H](C)[C@@H]1CC[C@@H](C)c2c1cc(C)c(O)c2O` [Compound 4, 7,8-dihydroxyserrulat-14-ene], for which, at CYP2D6, the inhibition at 1 µM was in the range of 12 to 21% and the inhibition at 10 µM is 45%.
In the case of `CC(C)=CCC[C@@H]1COc2c(C)cc(O)c3c2[C@H]1CC[C@H]3C` [Compound 3, 5,18-epoxy-8-hydroxyserrulat-14-ene], the inhibition at 10 µM at BRD2(2) (h) bromodomain is 18%; on HDAC3 (h), 3%; on BRPF1-1 (h) bromodomain, -4%; at SUV39H2 (h) it was 14%; at HAT1(h), -3%; on UHRF1 (108-286) (h) (10 μM), 29%. The inhibition at 10 µM was 16% at BAZ2A (h) bromodomain, -4% at DNMT3b, -1% in series [1] and 2% in the series on H3K27 me2-1. For the same compound, the remaining activity at 10 µM came out at 24% at HMG-CoA Reductase; 50% at Histamine H1 (setting [3]); 1% on Histamine H3 (setting [3]); 12% on Deacetylase, Histone 2 (setting [3]).
Consider `CC(C)=CCC[C@@H]1C(O)Oc2c(C)cc(O)c3c2[C@H]1CC[C@H]3C` (stereo partly shown) [Compound 2, 5,18-epoxyserrulat-14-en-8,18-diol], for which the inhibition at 10 µM on BRD2(2) (h) bromodomain is 22%; at HDAC3 (h) it was 1%; at BRPF1-1 (h) bromodomain, -25%; on SUV39H2 (h) it was -16%; on HAT1(h), 3%; against CYP2D6, 44%. Further, the inhibition at 10 µM at UHRF1 (108-286) (h) (10 μM) was 34%; at BAZ2A (h) bromodomain, 17%; on DNMT3b it was -17%; in series [1], 12%; with H3K27 me2-1, 3%. For the same compound, the remaining activity at 10 µM at HMG-CoA Reductase is 27%; at Histamine H1 (setting [2]), 66%; on Histamine H1 (setting [3]) it was 60%; on Histamine H3 (setting [2]), -5%; on Histamine H3 (setting [3]), 24%; at Deacetylase, Histone 2 (setting [2]) it was 44%. Besides, the remaining activity at 10 µM at Deacetylase, Histone 2 (setting [3]) is 21%. For the same compound, the inhibition at 1 µM against CYP2D6 was 12 to 21%.
`Nc1ncnc2c1ncn2[C@@H]1O[C@H](CSCC[C@H](N)C(=O)O)[C@@H](O)[C@H]1O` [SAH]: the IC50 at SUV39H2 (h) (read-out: Reference IC50) amounted to 24 µM; on DNMT3b (read-out: Reference IC50) it was 0.094 µM.
